Measurements published in patent US20050142574A1, “Mutants of core 2 B-1, 6-N-acetylglycosaminyltransferase” (Seikagaku Corporation and Glycodesign Holdings Ltd., priority 2003, published 2005).
Residue numbers refer to the chain shown, from its start. Like-named read-outs stand apart in the source and are kept apart here.

Columns and labels:
Type in all cases: biochemical
[1] = molecular target: T1, wild-type mouse Core 2 GlcNAcT1 (Mus musculus, UniProt Q09324, H362D/H420R/R88W/S191T/T260A); experiment: Activity of stored recombinant enzyme after addition of reducing agents; settings: following storage of expressed and purified recombinant enzyme
T1 construct: made in house; host or cells: COS-7 or CHO-S cells, secreted into the culture supernatant, purified on anti-FLAG M1 beads
T1 sequence (Q09324 34-428 R88W/S191T/T260A/H362D/H420R): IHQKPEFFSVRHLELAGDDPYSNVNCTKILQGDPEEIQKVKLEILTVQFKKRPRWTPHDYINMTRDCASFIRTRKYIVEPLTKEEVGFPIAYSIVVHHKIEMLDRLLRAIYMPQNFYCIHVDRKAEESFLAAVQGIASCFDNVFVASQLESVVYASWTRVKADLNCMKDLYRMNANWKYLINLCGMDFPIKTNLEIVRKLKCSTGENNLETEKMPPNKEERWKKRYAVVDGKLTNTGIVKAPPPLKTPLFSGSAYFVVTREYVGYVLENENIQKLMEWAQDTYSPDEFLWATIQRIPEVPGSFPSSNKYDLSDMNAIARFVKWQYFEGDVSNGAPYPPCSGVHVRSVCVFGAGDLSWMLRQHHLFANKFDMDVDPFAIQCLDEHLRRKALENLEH
Source text: (§1) Iodoacetamide, 5,5′-dithiobis(2-nitrobenzoic acid) (DTNB), and N-ethylmaleimide causes inhibition of wild-type human and mouse Core 2 GlcNAcT1s. […] The blocking of this residue by oxidation, alkylation, or heavy metal binding causes inhibition of the enzyme.

[2] = molecular target: T2, wild-type human Core 2 GlcNAcT1 (Homo sapiens, UniProt Q02742, I152V); experiment: as above; settings: following storage of expressed and purified recombinant enzyme
T2 construct: S-tag (N, cleaved yes); made in house
T2 sequence (Q02742 37-428 I152V): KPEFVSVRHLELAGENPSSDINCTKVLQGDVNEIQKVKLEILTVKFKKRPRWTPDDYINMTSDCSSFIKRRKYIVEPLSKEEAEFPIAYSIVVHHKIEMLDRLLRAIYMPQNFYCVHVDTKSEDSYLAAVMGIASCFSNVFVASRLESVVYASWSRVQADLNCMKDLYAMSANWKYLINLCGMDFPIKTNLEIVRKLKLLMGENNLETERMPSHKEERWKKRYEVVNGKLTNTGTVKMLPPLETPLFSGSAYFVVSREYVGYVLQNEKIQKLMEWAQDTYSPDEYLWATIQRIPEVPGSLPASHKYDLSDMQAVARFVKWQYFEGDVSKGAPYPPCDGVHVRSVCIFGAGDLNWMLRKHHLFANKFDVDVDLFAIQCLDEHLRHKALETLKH
Source text: as §1

[3] = molecular target: T3, C217S mouse Core 2 GlcNAcT1 (Mus musculus, UniProt Q09324, C217S); experiment: Effects of sulfhydryl reagents and heavy metals on enzyme activity (% activity); settings: relatively high concentrations (FIG. 1), 37° C., 2.0 hours
T3 construct: made in house; host or cells: CHO-S or COS-7 cells, secreted, purified on anti-FLAG M1 beads
T3 sequence (Q09324 with tags, fused parts or gaps R88W/S191T/C217S/T260A/H362D/H420R): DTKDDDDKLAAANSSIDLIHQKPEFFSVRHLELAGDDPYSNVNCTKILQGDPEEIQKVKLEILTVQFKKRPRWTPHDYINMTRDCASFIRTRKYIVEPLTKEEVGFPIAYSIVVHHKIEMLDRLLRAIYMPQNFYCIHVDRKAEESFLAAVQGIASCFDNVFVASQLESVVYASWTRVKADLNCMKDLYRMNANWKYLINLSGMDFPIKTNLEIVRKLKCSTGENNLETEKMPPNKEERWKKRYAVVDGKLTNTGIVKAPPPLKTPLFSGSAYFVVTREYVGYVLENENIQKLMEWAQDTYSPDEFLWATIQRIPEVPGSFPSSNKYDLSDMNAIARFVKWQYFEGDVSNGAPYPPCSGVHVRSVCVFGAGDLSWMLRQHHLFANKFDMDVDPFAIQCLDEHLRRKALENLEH
Procedure: (§2) Wild-type and C217S, human and mouse, Core 2 GlcNAcT1s were dissolved in an aqueous solution containing 30 mM 2-morpholinoethanesulfonic acid (MES) buffer (pH 6.7) and 1.0 mg/ml bovine serum albumin (BSA). Iodoacetamide (IAA), 5,5′-dithiobis(2-nitrobenzoic acid) (DTNB), N-ethylmaleimide (NEM), HgCl2 and ZnSO4 were added at the concentrations listed on FIGS. 1 and 2. 1.0 mM UDP-GlcNAc, 0.50 mM Gal(β1-3)GalNAcα-pnp, (3H)UDP-GlcNAc (0.50 μCi) and 30 mM MES buffer (pH 6.7) were added as well. The solutions were incubated at 37° C. for 2.0 hours. The (^3H)UDP-GlcNAc and (^3H)GlcNAc(β1-6)Gal(β1-3)GalNAcα-pnp were separated by solid-phase extraction and the DPM of (^3H)Gal(β1-3) GlcNAc(β1-6)GalNAcα-pnp were counted by liquid scintillation. A solution containing all components with exception of enzymes was prepared to measure background levels. The % activity was calculated as follows: (DPMinhibitor−DPMbackground)/(DPMcontrol−DPMbackground)*100. All assays were performed in duplicate. The results are plotted in FIGS. 1 and 2.

[4] = molecular target: T4, C217S human Core 2 GlcNAcT1 (Homo sapiens, UniProt Q02742, C217S); experiment: as above; settings: relatively high concentrations (FIG. 2), 37° C., 2.0 hours
T4 construct: S-tag (N, cleaved yes); made in house
T4 sequence (Q02742 37-428 C217S): T2 sequence (Q02742 37-428 I152V) with V116I, C181S
Procedure: as §2

[5] = molecular target: T2, wild-type human Core 2 GlcNAcT1; experiment: as above; settings: 37° C., 2.0 hours, concentrations listed on FIG. 2
Procedure: as §2

[6] = molecular target: T5, wild-type mouse Core 2 GlcNAcT1 (Mus musculus, UniProt Q09324); experiment: as above; settings: 37° C., 2.0 hours, concentrations listed on FIG. 1
T5 construct: made in house; host or cells: COS-7 or CHO-S cells, secreted into the culture supernatant, purified on anti-FLAG M1 beads
T5 sequence (Q09324 34-428 R88W/S191T/T260A/H362D/H420R): T1 sequence (Q09324 34-428 R88W/S191T/T260A/H362D/H420R)
Procedure: as §2

[7] = molecular target: T3, C217S mouse Core 2 GlcNAcT1; experiment: Kinetic characterization assays (standard enzyme assay with titrated substrate or product); settings: for inhibitory potential of the reaction product, C217S compared with wild-type: mouse enzymes, titrated product in standard assay
Procedure: (§3) Standard enzyme assays for wild-type and mutant (217Cys→Ser) Core 2 GlcNAcT1 were carried out in a 30 μl solution containing 30 mM 2-morpholinoethanesulfonic acid (MES) buffer (pH 6.7), 1.0 mM UDP-GlcNAc (donor substrate), 1.0 μCi UDP-6-[3H]GlcNAc, 0.50 mM (Galβ1-3)GalNAcα-pNp (acceptor substrate or AS), 1 mg/ml BSA, and 15-25 μU (1 unit=1 micromole/min) per assay of recombinant Core 2 GlcNAcT1 protein. The reaction was incubated for 2.0 hours at 37° C. and stopped by the addition of 460 μl of water. Reactions were frozen at −20° C. if they were not processed immediately. The reaction product Galβ1,3 [^3H]GlcNAc(β1,6)GalNAcα-pNp was separated from unreacted UDP-6[^3H]GlcNAc by solid phase extraction using Waters Sep-Pak columns. Samples were eluted from the column with ethanol, added to 10 ml of scintillation fluid and radioactivity (DPM) was determined.
(§4) Km values were determined by running the standard assay conditions with the exception of the titration of the donor substrate UDP-GlcNAc concentration (for Km,DS) or AS concentration (for Km,AS). The IC50 values for the products UDP and GlcNAc(β1-6)Gal(β1-3)GalNAcα-pNp were determined by running the standard assay conditions and adding titrated product. The mechanism was determined by titrating both donor and acceptor substrates at the same time.

[8] = molecular target: T4, C217S human Core 2 GlcNAcT1; experiment: as above; settings: for inhibitory potential of the reaction product, C217S compared with wild-type: human enzymes, titrated product in standard assay; for Km: C217S human enzyme
Procedure: as §3, §4

[9] = molecular target: T1, wild-type mouse Core 2 GlcNAcT1; experiment: as above
Procedure: as §3, §4

[10] = molecular target: T2, wild-type human Core 2 GlcNAcT1; experiment: as above
Procedure: as §3, §4

[11] = molecular target: T5, wild-type mouse Core 2 GlcNAcT1; experiment: as above; settings: Ordered Bi Bi mechanism, read-out: KD for the donor substrate
Procedure: as §3, §4

[12] = acceptor substrate titrated, read-out: Km value for the acceptor substrate
[13] = donor substrate titrated, read-out: Km value for the donor substrate

O[C@@H](CS)[C@@H](O)CS (racemic) [DTT, 1,4-dithiothreitol]
change of enzyme activity after addition of reducing agent [1]: increase
change of enzyme activity after addition of reducing agent [2]: increase

O=C(O)c1cc(SSc2ccc([N+](=O)[O-])c(C(=O)O)c2)ccc1[N+](=O)[O-] [DTNB, 5,5′-dithiobis(2-nitrobenzoic acid)]
inhibition of enzyme activity [3]: not inhibited
inhibition of enzyme activity [4]: not inhibited
inhibition of enzyme activity [5]: inhibition
inhibition of enzyme activity [6]: inhibition

CC(=O)N[C@H]1[C@H](OC[C@H]2O[C@H](Oc3ccc([N+](=O)[O-])cc3)[C@H](NC(C)=O)[C@@H](O[C@@H]3O[C@H](CO)[C@H](O)[C@H](O)[C@H]3O)[C@H]2O)O[C@H](CO)[C@@H](O)[C@@H]1O [Gal(β1-3) GlcNAc(β1-6)GalNAcα-pNp]
inhibitory potential of the reaction product, C217S compared with wild-type [7]: the same for both enzymes
inhibitory potential of the reaction product, C217S compared with wild-type [8]: the same for both enzymes

CC(=O)N[C@H]1[C@@H](Oc2ccc([N+](=O)[O-])cc2)O[C@H](CO)[C@H](O)[C@@H]1O[C@@H]1O[C@H](CO)[C@H](O)[C@H](O)[C@H]1O [Gal(β1-3)GalNAcα-pNp]
Km ([7]; C217S mouse enzyme, acceptor substrate titrated, read-out: Km value for the acceptor substrate): 130 µM
Km [9, 12]: 150 µM
Km [8, 12]: 320 µM
Km [10, 12]: 340 µM

[Cl][Hg][Cl] [Hg^2+, HgCl2]
inhibition of enzyme activity [3]: did not affect
inhibition of enzyme activity [4]: insensitive
inhibition of enzyme activity [5]: inhibit
inhibition of enzyme activity [6]: inhibit

NC(=O)CI [Iodoacetamide]
inhibition of enzyme activity [3]: not inhibited
inhibition of enzyme activity [4]: not inhibited
inhibition of enzyme activity [5]: inhibition
inhibition of enzyme activity [6]: inhibition

CCN1C(=O)C=CC1=O [N-ethylmaleimide]
inhibition of enzyme activity [3]: not inhibited
inhibition of enzyme activity [4]: not inhibited
inhibition of enzyme activity [5]: inhibition
inhibition of enzyme activity [6]: inhibition

O=c1ccn([C@@H]2O[C@H](COP(=O)(O)OP(=O)(O)O)[C@@H](O)[C@H]2O)c(=O)[nH]1 [UDP]
inhibitory potential of the reaction product, C217S compared with wild-type [7]: the same for both enzymes
inhibitory potential of the reaction product, C217S compared with wild-type [8]: the same for both enzymes

O=S(=O)([O-])[O-].[Zn+2] [Zn^2+, ZnSO4]
inhibition of enzyme activity [3]: did not affect
inhibition of enzyme activity [4]: insensitive to Hg^2+ only
inhibition of enzyme activity [5]: inhibit
inhibition of enzyme activity [6]: inhibit

uridine diphospho-N-acetylglucosamine [UDP-GlcNAc]
Kd ([7]; C217S mouse enzyme, Ordered Bi Bi mechanism, read-out: KD for the donor substrate): 110 µM
Km ([7]; C217S mouse enzyme, donor substrate titrated, read-out: Km value for the donor substrate): 1500 µM
Km [9, 13]: 1500 µM
Km [8, 13]: 1100 µM
Km [10, 13]: 1200 µM
Kd [11]: 110 µM
